Experimental data as given in ChEMBL document CHEMBL2073817 (J Pharmacol Exp Ther, 2002).
Each block holds one molecule with its values, some of them ahead of it.

What was measured:
[1] = biological target: T1, OAT4 (Solute carrier family 22 member 11) (Homo sapiens, UniProt Q9NSA0); experiment: TP_TRANSPORTER: inhibition of MTX uptake (MTX: 1 uM, PCG: 1000 uM) in OAT4-expressing S2 cells; type: functional, cell-based; design: scale not given: the % may be the effect or the level left; conditions: mouse, probe MTX, read-out: Activity
T1 sequence (Q9NSA0 whole entry): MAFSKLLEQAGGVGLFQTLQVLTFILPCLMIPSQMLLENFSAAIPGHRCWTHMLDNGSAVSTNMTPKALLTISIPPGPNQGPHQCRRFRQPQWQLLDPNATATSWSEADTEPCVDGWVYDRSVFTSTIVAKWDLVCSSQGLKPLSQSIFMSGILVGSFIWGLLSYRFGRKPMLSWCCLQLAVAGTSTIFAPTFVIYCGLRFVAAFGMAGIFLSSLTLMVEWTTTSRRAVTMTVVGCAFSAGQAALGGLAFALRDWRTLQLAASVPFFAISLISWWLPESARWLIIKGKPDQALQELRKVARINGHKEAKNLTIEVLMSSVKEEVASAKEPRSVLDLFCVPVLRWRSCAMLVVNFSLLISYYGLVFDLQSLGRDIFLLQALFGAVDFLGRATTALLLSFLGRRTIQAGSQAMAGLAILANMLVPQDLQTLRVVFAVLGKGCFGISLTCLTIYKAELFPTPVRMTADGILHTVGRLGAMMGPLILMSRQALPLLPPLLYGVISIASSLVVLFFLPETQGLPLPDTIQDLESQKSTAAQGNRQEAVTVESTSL

[2] = biological target: T2, Organic anion transporter 3 (Homo sapiens, UniProt Q8TCC7); experiment: TP_TRANSPORTER: inhibition of MTX uptake in OAT3-expressing S2 cells; type: functional, cell-based
T2 sequence (Q8TCC7 whole entry): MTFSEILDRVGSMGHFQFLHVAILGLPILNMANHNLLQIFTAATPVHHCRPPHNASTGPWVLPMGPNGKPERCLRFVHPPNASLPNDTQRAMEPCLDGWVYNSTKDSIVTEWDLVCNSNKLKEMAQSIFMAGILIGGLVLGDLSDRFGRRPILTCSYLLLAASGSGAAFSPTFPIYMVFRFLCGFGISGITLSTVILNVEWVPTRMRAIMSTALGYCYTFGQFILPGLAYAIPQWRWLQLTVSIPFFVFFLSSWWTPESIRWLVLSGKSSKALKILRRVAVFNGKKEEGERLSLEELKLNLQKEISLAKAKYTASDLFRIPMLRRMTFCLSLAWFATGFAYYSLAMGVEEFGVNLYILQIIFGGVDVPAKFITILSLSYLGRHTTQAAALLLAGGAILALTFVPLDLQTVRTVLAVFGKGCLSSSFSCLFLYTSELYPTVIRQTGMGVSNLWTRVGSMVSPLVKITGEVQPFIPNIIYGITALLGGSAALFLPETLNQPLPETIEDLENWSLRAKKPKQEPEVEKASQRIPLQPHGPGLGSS

[3] = biological target: T1, OAT4 (Solute carrier family 22 member 11); experiment: TP_TRANSPORTER: inhibition of MTX uptake (MTX: 1 uM, Ibuprofen: 1000 uM) in OAT4-expressing S2 cells; type: functional, cell-based; design: scale not given: the % may be the effect or the level left; conditions: probe MTX, read-out: Activity
[4] = biological target: T1, OAT4 (Solute carrier family 22 member 11); experiment: TP_TRANSPORTER: inhibition of MTX uptake (MTX: 1 uM, Probenecid: 1000 uM) in OAT4-expressing S2 cells; type: functional, cell-based; design: scale not given: the % may be the effect or the level left; conditions: probe MTX, read-out: Activity
[5] = biological target: T1, OAT4 (Solute carrier family 22 member 11); experiment: TP_TRANSPORTER: inhibition of MTX uptake (MTX: 1 uM, Ketoprofen: 1000 uM) in OAT4-expressing S2 cells; type: functional, cell-based; design: scale not given: the % may be the effect or the level left; conditions: mouse, probe MTX, read-out: Activity
[6] = biological target: T3, OAT1 (Solute carrier family 22 member 6) (Homo sapiens, UniProt Q4U2R8); experiment: TP_TRANSPORTER: inhibition of MTX uptake (MTX: 1 uM, Ketoprofen: 1000 uM) in OAT1-expressing S2 cells; type: functional, cell-based; design: scale not given: the % may be the effect or the level left; conditions: probe MTX, read-out: Activity
T3 sequence (Q4U2R8 whole entry): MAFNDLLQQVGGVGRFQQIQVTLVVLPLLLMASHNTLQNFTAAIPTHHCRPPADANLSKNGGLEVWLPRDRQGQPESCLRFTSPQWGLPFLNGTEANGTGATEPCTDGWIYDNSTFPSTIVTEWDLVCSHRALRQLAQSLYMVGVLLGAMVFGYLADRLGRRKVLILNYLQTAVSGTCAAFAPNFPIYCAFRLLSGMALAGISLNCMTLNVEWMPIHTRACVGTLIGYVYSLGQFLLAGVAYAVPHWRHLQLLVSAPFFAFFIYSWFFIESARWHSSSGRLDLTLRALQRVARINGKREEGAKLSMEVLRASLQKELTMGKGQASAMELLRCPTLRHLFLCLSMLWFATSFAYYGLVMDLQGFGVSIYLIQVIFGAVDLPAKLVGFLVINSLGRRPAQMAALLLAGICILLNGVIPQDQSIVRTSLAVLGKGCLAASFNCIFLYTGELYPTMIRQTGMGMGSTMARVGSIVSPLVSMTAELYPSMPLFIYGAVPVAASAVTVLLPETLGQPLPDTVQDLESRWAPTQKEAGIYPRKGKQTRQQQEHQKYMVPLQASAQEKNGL

[7] = biological target: T1, OAT4 (Solute carrier family 22 member 11); experiment: TP_TRANSPORTER: inhibition of MTX uptake (MTX: 1 uM, Indomethacin: 500 uM) in OAT4-expressing S2 cells; type: functional, cell-based; design: scale not given: the % may be the effect or the level left; conditions: probe MTX, read-out: Activity
[8] = biological target: T3, OAT1 (Solute carrier family 22 member 6); experiment: TP_TRANSPORTER: inhibition of MTX uptake (MTX: 1 uM, Indomethacin: 500 uM) in OAT1-expressing S2 cells; type: functional, cell-based; design: scale not given: the % may be the effect or the level left; conditions: mouse, probe MTX, read-out: Activity
[9] = biological target: T1, OAT4 (Solute carrier family 22 member 11); experiment: TP_TRANSPORTER: inhibition of MTX uptake (MTX: 1 uM, Piroxicam: 1000 uM) in OAT4-expressing S2 cells; type: functional, cell-based; design: scale not given: the % may be the effect or the level left; conditions: mouse, probe MTX, read-out: Activity
[10] = biological target: T1, OAT4 (Solute carrier family 22 member 11); experiment: TP_TRANSPORTER: inhibition of MTX uptake (MTX: 1 uM, Phenylbutazone: 1000 uM) in OAT4-expressing S2 cells; type: functional, cell-based; design: scale not given: the % may be the effect or the level left; conditions: probe MTX, read-out: Activity
[11] = biological target: T3, OAT1 (Solute carrier family 22 member 6); experiment: TP_TRANSPORTER: inhibition of MTX uptake (MTX: 1 uM, Phenylbutazone: 1000 uM) in OAT1-expressing S2 cells; type: functional, cell-based; design: scale not given: the % may be the effect or the level left; conditions: probe MTX, read-out: Activity
[12] = substrate: CN(Cc1cnc2nc(N)nc(N)c2n1)c1ccc(C(=O)N[C@@H](CCC(=O)O)C(=O)O)cc1; experiment: TP_TRANSPORTER: uptake in OAT1-expressing S2 cells; type: functional, cell-based
[13] = substrate: CN(Cc1cnc2nc(N)nc(N)c2n1)c1ccc(C(=O)N[C@@H](CCC(=O)O)C(=O)O)cc1; experiment: cells, lysate or membranes named

- activity at 1000 µM [1]: 79.7%
- Ki [2]: 97.6 µM
Molecule: CC1(C)S[C@@H]2[C@H](NC(=O)Cc3ccccc3)C(=O)N2[C@H]1C(=O)O [PENICILLIN G]

- activity at 1000 µM [3]: 67.8%
Molecule: CC(C)Cc1ccc(C(C)C(=O)O)cc1 (centres undefined) [IBUPROFEN]

- activity at 1000 µM [4]: 81.6%
Molecule: CCCN(CCC)S(=O)(=O)c1ccc(C(=O)O)cc1 [PROBENECID]

- activity at 1000 µM [5]: 81%
- activity at 1000 µM [6]: 53.4%
- Ki [2]: 1160 µM
Molecule: CC(C(=O)O)c1cccc(C(=O)c2ccccc2)c1 (centres undefined) [KETOPROFEN]

Molecule: O=C(O)c1ccccc1O [SALICYLIC ACID]
- Ki [2]: 1020 µM

- activity at 500 µM [7]: 60.9%
- activity at 500 µM [8]: 60.6%
- Ki [2]: 5.95 µM
Molecule: COc1ccc2c(c1)c(CC(=O)O)c(C)n2C(=O)c1ccc(Cl)cc1 [INDOMETHACIN]

- activity at 1000 µM [9]: 62%
- Ki [2]: 1200 µM
Molecule: CN1C(C(=O)Nc2ccccn2)=C(O)c2ccccc2S1(=O)=O [PIROXICAM]

- activity at 1000 µM [10]: 55.7%
- activity at 1000 µM [11]: 30%
- Ki [2]: 34.7 µM
Molecule: CCCCC1C(=O)N(c2ccccc2)N(c2ccccc2)C1=O [PHENYLBUTAZONE]

B1: Organic anion transporter 3 (Homo sapiens) (protein)
chain: T2 sequence (Q8TCC7 whole entry)
- Km [12]: 21.1 µM

B2: Solute carrier family 22 member 11 (Homo sapiens) (protein)
chain: T1 sequence (Q9NSA0 whole entry)
- Km [12]: 17.8 µM

B3: Solute carrier family 22 member 6 (Homo sapiens) (protein)
chain: T3 sequence (Q4U2R8 whole entry)
- Km [13]: 554 µM
